Literature values in PubChem BioAssay AID1259409 (Chemical Carcinogenesis Research Information System (CCRIS), 2018).

Test system: rodent chemically induced tumor inhibition, incidence and multiplicity
Assay: CCRIS tumor inhibitor studies

SMILES: Cc1c2ccncc2c(C)c2c1[nH]c1ccccc12
- tumour outcome (control, treated, inhibition, significance) (Carcinogen: 7,12-DIMETHYLBENZ[A]ANTHRACENE, 57-97-6, Dose [Inhibitor]: 0, 4.1 NMOL IN 0.2 ML ACETONE APPLIED 5 MIN PRIOR TO CARCINOGEN (STUDY DURATION: 21 WK), Route [Inhibitor]: DERMAL, Species: MOUSE, Strain/Sex: SENCAR/FEMALE, Target Tissue: Type of Lesion: SKIN: PAPILLOMA, Dose [Carcinogen]: 10 NMOL IN 0.2 ML ACETONE ONCE, Promoter: 12-O-TETRADECANOYLPHORBOL-13-ACETATE, 16561-29-8): 79%, 100%, -27%, not calculated
- tumour outcome (control, treated, inhibition, significance) (Carcinogen: 7,12-DIMETHYLBENZ[A]ANTHRACENE, 57-97-6, Dose [Inhibitor]: 0, 41 NMOL IN 0.2 ML ACETONE APPLIED 5 MIN PRIOR TO CARCINOGEN (STUDY DURATION: 21 WK), Route [Inhibitor]: DERMAL, Species: MOUSE, Strain/Sex: SENCAR/FEMALE, Target Tissue: Type of Lesion: SKIN: PAPILLOMA, Dose [Carcinogen]: 10 NMOL IN 0.2 ML ACETONE ONCE, Promoter: 12-O-TETRADECANOYLPHORBOL-13-ACETATE, 16561-29-8): 79%, 87%, -10%, not calculated
- tumour outcome (control, treated, inhibition, significance) (Carcinogen: 7,12-DIMETHYLBENZ[A]ANTHRACENE, 57-97-6, Dose [Inhibitor]: 0, 410 NMOL IN 0.2 ML ACETONE APPLIED 5 MIN PRIOR TO CARCINOGEN (STUDY DURATION: 21 WK), Route [Inhibitor]: DERMAL, Species: MOUSE, Strain/Sex: SENCAR/FEMALE, Target Tissue: Type of Lesion: SKIN: PAPILLOMA, Dose [Carcinogen]: 10 NMOL IN 0.2 ML ACETONE ONCE, Promoter: 12-O-TETRADECANOYLPHORBOL-13-ACETATE, 16561-29-8): 79%, 47%, 41%, not calculated
- tumour outcome (control, treated, inhibition, significance) (Carcinogen: 7,14-DIMETHYLBENZO[A,H]ANTHRACENE, 35335-07-0, Dose [Inhibitor]: 0, 4.1 NMOL IN 0.2 ML ACETONE APPLIED 5 MIN PRIOR TO CARCINOGEN (STUDY DURATION: 21 WK), Route [Inhibitor]: DERMAL, Species: MOUSE, Strain/Sex: SENCAR/FEMALE, Target Tissue: Type of Lesion: SKIN: PAPILLOMA, Dose [Carcinogen]: 47.5 NMOL IN 0.2 ML ACETONE ONCE, Promoter: 12-O-TETRADECANOYLPHORBOL-13-ACETATE, 16561-29-8): 97%, 100%, -3%, not calculated
- tumour outcome (control, treated, inhibition, significance) (Carcinogen: 7,14-DIMETHYLBENZO[A,H]ANTHRACENE, 35335-07-0, Dose [Inhibitor]: 0, 41 NMOL IN 0.2 ML ACETONE APPLIED 5 MIN PRIOR TO CARCINOGEN (STUDY DURATION: 21 WK), Route [Inhibitor]: DERMAL, Species: MOUSE, Strain/Sex: SENCAR/FEMALE, Target Tissue: Type of Lesion: SKIN: PAPILLOMA, Dose [Carcinogen]: 47.5 NMOL IN 0.2 ML ACETONE ONCE, Promoter: 12-O-TETRADECANOYLPHORBOL-13-ACETATE, 16561-29-8): 97%, 93%, 4%, not calculated
- tumour outcome (control, treated, inhibition, significance) (Carcinogen: 7,14-DIMETHYLBENZO[A,H]ANTHRACENE, 35335-07-0, Dose [Inhibitor]: 0, 410 NMOL IN 0.2 ML ACETONE APPLIED 5 MIN PRIOR TO CARCINOGEN (STUDY DURATION: 21 WK), Route [Inhibitor]: DERMAL, Species: MOUSE, Strain/Sex: SENCAR/FEMALE, Target Tissue: Type of Lesion: SKIN: PAPILLOMA, Dose [Carcinogen]: 47.5 NMOL IN 0.2 ML ACETONE ONCE, Promoter: 12-O-TETRADECANOYLPHORBOL-13-ACETATE, 16561-29-8): 97%, 90%, 7%, not calculated
- tumour outcome (control, treated, inhibition, significance) (Carcinogen: DIBENZO[A,H]ANTHRACENE, 53-70-3, Dose [Inhibitor]: 0, 4.1 NMOL IN 0.2 ML ACETONE APPLIED 5 MIN PRIOR TO CARCINOGEN (STUDY DURATION: 21 WK), Route [Inhibitor]: DERMAL, Species: MOUSE, Strain/Sex: SENCAR/FEMALE, Target Tissue: Type of Lesion: SKIN: PAPILLOMA, Dose [Carcinogen]: 200 NMOL IN 0.2 ML ACETONE ONCE, Promoter: 12-O-TETRADECANOYLPHORBOL-13-ACETATE, 16561-29-8): 100%, 87%, 13%, not calculated
- tumour outcome (control, treated, inhibition, significance) (Carcinogen: DIBENZO[A,H]ANTHRACENE, 53-70-3, Dose [Inhibitor]: 0, 41 NMOL IN 0.2 ML ACETONE APPLIED 5 MIN PRIOR TO CARCINOGEN (STUDY DURATION: 21 WK), Route [Inhibitor]: DERMAL, Species: MOUSE, Strain/Sex: SENCAR/FEMALE, Target Tissue: Type of Lesion: SKIN: PAPILLOMA, Dose [Carcinogen]: 200 NMOL IN 0.2 ML ACETONE ONCE, Promoter: 12-O-TETRADECANOYLPHORBOL-13-ACETATE, 16561-29-8): 100%, 97%, 3%, not calculated
- tumour outcome (control, treated, inhibition, significance) (Carcinogen: DIBENZO[A,H]ANTHRACENE, 53-70-3, Dose [Inhibitor]: 0, 410 NMOL IN 0.2 ML ACETONE APPLIED 5 MIN PRIOR TO CARCINOGEN (STUDY DURATION: 21 WK), Route [Inhibitor]: DERMAL, Species: MOUSE, Strain/Sex: SENCAR/FEMALE, Target Tissue: Type of Lesion: SKIN: PAPILLOMA, Dose [Carcinogen]: 200 NMOL IN 0.2 ML ACETONE ONCE, Promoter: 12-O-TETRADECANOYLPHORBOL-13-ACETATE, 16561-29-8): 100%, 97%, 3%, not calculated

SMILES: [Mg+2]
- tumour outcome (control, treated, inhibition, significance) (Carcinogen: 7,12-DIMETHYLBENZ[A]ANTHRACENE, 57-97-6, Dose [Inhibitor]: 0, 50 UG/ML IN DRINKING WATER FROM 40-90 D OF AGE THEN 0, 30 UG/ML FROM 90-180 D OF AGE AND 0, 20 UG/ML FROM 180-240 D O, Dose [Inhibitor]: 0, 50 UG/ML IN DRINKING WATER FROM 40-90 D OF AGE THEN 0, 30 UG/ML FROM 90-180 D OF AGE AND 0, 20 UG/ML FROM 180-240 D O, Route [Inhibitor]: ORAL, Species: RAT, Strain/Sex: SPRAGUE DAWLEY/FEMALE, Target Tissue: Type of Lesion: MAMMARY GLAND: ADENOCARCINOMA, FIBROADENOMA, Dose [Carcinogen]: 5 MG IN 0.2 ML SESAME OIL 1/2 D FOR 12 D BEGINNING AT 50 D OF AGE, Promoter: NONE USED): 100%, 46%, 54%, p<0.001

SMILES: O=C1OCc2ccccc21
- tumour outcome (control, treated, inhibition, significance) (Carcinogen: BENZO[A]PYRENE, 50-32-8, Dose [Inhibitor]: 0.034 MMOL/G IN DIET BEGINNING 1 WK PRIOR TO FIRST CARCINOGEN DOSE AND CONTINUING FOR 3 D POST LAST CARCINOGEN DOSE (STU, Route [Inhibitor]: ORAL, Species: MOUSE, Strain/Sex: ICR/FEMALE, Target Tissue: Type of Lesion: FORESTOMACH: TUMOR, Dose [Carcinogen]: 1 MG IN 0.2 ML CORN OIL 2/WK FOR 4 WK, Promoter: NONE USED): 95%, 95%, 0%, not significant

SMILES: C/C(=C\c1ccc(C(=O)O)cc1)c1ccc2c(c1)C(C)(C)CCC2(C)C
- tumour outcome (control, treated, inhibition, significance) (Carcinogen: 7,12-DIMETHYLBENZ[A]ANTHRACENE, 57-97-6, Dose [Inhibitor]: 0.17 NMOL IN 0.2 ML ACETONE 1 HR PRIOR TO EACH PROMOTER DOSE FOR 12 WK (STUDY DURATION: 14 WK), Route [Inhibitor]: DERMAL, Species: MOUSE, Strain/Sex: SENCAR/FEMALE, Target Tissue: Type of Lesion: SKIN: PAPILLOMA, Dose [Carcinogen]: 200 NMOL IN 0.2 ML ACETONE ONCE, Promoter: 12-O-TETRADECANOYLPHORBOL-13-ACETATE, 16561-29-8): 100%, 100%, 0%, not calculated
- tumour outcome (control, treated, inhibition, significance) (Carcinogen: 7,12-DIMETHYLBENZ[A]ANTHRACENE, 57-97-6, Dose [Inhibitor]: 0.17 NMOL IN 0.2 ML ACETONE 1 HR PRIOR TO EACH PROMOTER DOSE FOR 20 WK (STUDY DURATION: 22 WK), Route [Inhibitor]: DERMAL, Species: MOUSE, Strain/Sex: CD-1/FEMALE, Target Tissue: Type of Lesion: SKIN: PAPILLOMA, Dose [Carcinogen]: 200 NMOL IN 0.2 ML ACETONE ONCE, Promoter: 12-O-TETRADECANOYLPHORBOL-13-ACETATE, 16561-29-8): 94%, 80%, 15%, not calculated
- tumour outcome (control, treated, inhibition, significance) (Carcinogen: 7,12-DIMETHYLBENZ[A]ANTHRACENE, 57-97-6, Dose [Inhibitor]: 1.7 NMOL IN 0.2 ML ACETONE 1 HR PRIOR TO EACH PROMOTER DOSE FOR 12 WK (STUDY DURATION: 14 WK), Route [Inhibitor]: DERMAL, Species: MOUSE, Strain/Sex: SENCAR/FEMALE, Target Tissue: Type of Lesion: SKIN: PAPILLOMA, Dose [Carcinogen]: 200 NMOL IN 0.2 ML ACETONE ONCE, Promoter: 12-O-TETRADECANOYLPHORBOL-13-ACETATE, 16561-29-8): 100%, 78%, 22%, not calculated
- tumour outcome (control, treated, inhibition, significance) (Carcinogen: 7,12-DIMETHYLBENZ[A]ANTHRACENE, 57-97-6, Dose [Inhibitor]: 1.7 NMOL IN 0.2 ML ACETONE 1 HR PRIOR TO EACH PROMOTER DOSE FOR 20 WK (STUDY DURATION: 22 WK), Route [Inhibitor]: DERMAL, Species: MOUSE, Strain/Sex: CD-1/FEMALE, Target Tissue: Type of Lesion: SKIN: PAPILLOMA, Dose [Carcinogen]: 200 NMOL IN 0.2 ML ACETONE ONCE, Promoter: 12-O-TETRADECANOYLPHORBOL-13-ACETATE, 16561-29-8): 94%, 31%, 67%, not calculated
- tumour outcome (control, treated, inhibition, significance) (Carcinogen: 7,12-DIMETHYLBENZ[A]ANTHRACENE, 57-97-6, Dose [Inhibitor]: 17 NMOL IN 0.2 ML ACETONE 1 HR PRIOR TO EACH PROMOTER DOSE FOR 12 WK (STUDY DURATION: 14 WK), Route [Inhibitor]: DERMAL, Species: MOUSE, Strain/Sex: SENCAR/FEMALE, Target Tissue: Type of Lesion: SKIN: PAPILLOMA, Dose [Carcinogen]: 200 NMOL IN 0.2 ML ACETONE ONCE, Promoter: 12-O-TETRADECANOYLPHORBOL-13-ACETATE, 16561-29-8): 100%, 0%, 100%, not calculated

SMILES: O=C1CC(C(=O)O)C(C(=O)O)O1 (configuration not stated)
- tumour outcome (control, treated, inhibition, significance) (Carcinogen: BENZO[A]PYRENE, 50-32-8, Dose [Inhibitor]: 0.034 MMOL/G IN DIET FOR 5 WK BEGINNING 1 WK PRIOR TO FIRST CARCINOGEN DOSE AND CONTINUING FOR 3 D POST LAST CARCINOGEN, Route [Inhibitor]: ORAL, Species: MOUSE, Strain/Sex: ICR/HA/FEMALE, Target Tissue: Type of Lesion: FORESTOMACH: TUMOR, Dose [Carcinogen]: 1 MG IN 0.2 ML CORN OIL 2/WK FOR 4 WK STARTING, Promoter: NONE USED): 100%, 100%, 0%, not significant
